In this assay the target is Recombinant human ULK1 (1-649) (Homo sapiens (Human), UniProt O75385). Briefly: ULK1 ADP Glo kinase activity assay, new method (ULKtide peptide substrate). The following applies: 25° C., 40 minutes, read-out: ULK1 biochemical IC50. The method, then:
Recombinant human ULK1 (1-649) protein expressed in Sf9 insect cells was obtained from SignalChem (Vancouver, BC), catalog #U01-11G. Active kinase was purified via N-terminal GST tag to >85% purity.
ADP GLO Kinase Assay Reagents were obtained from Promega Corp (Madison, WI), catalog #V9104.
Synthetic peptide substrate (ULKtide) with the amino acid sequence YANWLAASIYLDGKKK was obtained from ThermoFisher Scientific USA.
ULK1 inhibitor potency was determined using the luminescent ADP Glo Kinase Assay (Promega), a universal ADP detection system that measures kinase activity by quantifying the amount of ADP produced during a kinase reaction. ULK1 kinase reactions are performed in a standard 96-well microplate (20 μL reaction volume) at 25° C. for 40 minutes in the presence or absence of the test compound (12-point dilution series starting at 10 μM). Addition of peptide substrate and ATP initiates the kinase reaction.
The standard ADP Glo assay is performed in two steps. In step one, following the kinase reaction, an equal volume of ADP-Glo™ Reagent (20 μL) is added to terminate the kinase reaction and deplete the remaining ATP. In the second step, the Kinase Detection Reagent (10 μL) is added to simultaneously convert ADP to ATP and allow the newly synthesized ATP to be measured using a luciferase/luciferin reaction. Step two of the ADP Glo assay is performed in a white 384-well plate (20 μL final volume). Thirty minutes after the addition of the Detection reagent, light generated from the luciferase reaction is measured (1 second exposure) using a microplate compatible luminometer (CLARIOstar, BMG Labtech).
Inhibition of ULK1 kinase activity is determined for each test compound by comparison to DMSO only control wells. Inhibitor IC50 was calculated by plotting the change in luminescence after 30 minutes (response) versus inhibitor concentration (in log molar) then applying the four-parameter variable slope curve fit (GraphPad Prism). Inhibition of ULK1 in biochemical assay is found in Table 4.

As usually defined, the IC50 is the concentration needed to halve the response being measured.

Each structure is given as a SMILES string. A value given as a limit tells only on which side of the number the result lay.

Chain of Recombinant human ULK1 (1-649) (O75385 1-649): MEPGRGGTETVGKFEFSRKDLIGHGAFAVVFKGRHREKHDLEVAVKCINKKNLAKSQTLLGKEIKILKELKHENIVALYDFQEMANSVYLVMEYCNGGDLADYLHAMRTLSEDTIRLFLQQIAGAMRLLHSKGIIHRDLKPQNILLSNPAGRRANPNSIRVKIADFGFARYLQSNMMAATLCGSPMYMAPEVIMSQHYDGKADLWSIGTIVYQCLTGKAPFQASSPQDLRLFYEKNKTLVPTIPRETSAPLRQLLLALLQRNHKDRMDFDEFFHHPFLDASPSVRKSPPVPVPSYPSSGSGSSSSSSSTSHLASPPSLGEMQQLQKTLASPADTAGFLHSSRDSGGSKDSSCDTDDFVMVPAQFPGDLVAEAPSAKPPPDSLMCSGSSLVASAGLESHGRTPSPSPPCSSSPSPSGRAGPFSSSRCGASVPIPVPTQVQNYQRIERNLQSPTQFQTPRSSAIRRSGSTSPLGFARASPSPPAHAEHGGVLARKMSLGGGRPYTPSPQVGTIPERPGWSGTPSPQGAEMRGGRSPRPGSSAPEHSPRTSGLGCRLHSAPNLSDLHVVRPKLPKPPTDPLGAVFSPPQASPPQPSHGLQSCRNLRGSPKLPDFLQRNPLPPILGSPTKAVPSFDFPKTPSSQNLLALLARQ

Turning to `O=C1c2sc(-c3nc(Nc4cc5c(cc4Cl)CNCC5)ncc3C(F)(F)F)cc2S(=O)(=O)CCN1C1CCC1` [Example 158, 7-(2-((7-chloro-1,2,3,4-tetrahydroisoquinolin-6-yl)amino)-5-(trifluoromethyl)pyrimidin-4-yl)-4-cyclobutyl-3,4-dihydrothieno[2,3-f][1,4]thiazepin-5(2H)-one 1,1-dioxide], the IC50 was at most 5 nM.

As to `CN1CCS(=O)(=O)c2cc(-c3nc(Nc4cc5c(cc4Cl)CCNC5)ncc3C(F)(F)F)sc2C1=O` [Example 159, 7-(2-((6-chloro-1,2,3,4-tetrahydroisoquinolin-7-yl)amino)-5-(trifluoromethyl)pyrimidin-4-yl)-4-methyl-3,4-dihydrothieno[2,3-f][1,4]thiazepin-5(2H)-one 1,1-dioxide], the IC50 was at most 5 nM.

Consider `CCc1cc2c(cc1Nc1ncc(C(F)(F)F)c(-c3cc4c(s3)C(=O)N(C)CCS4(=O)=O)n1)CNC2` [Example 160, 7-(2-((6-ethylisoindolin-5-yl)amino)-5-(trifluoromethyl)pyrimidin-4-yl)-4-methyl-3,4-dihydrothieno[2,3-f][1,4]thiazepin-5(2H)-one 1,1-dioxide], for which the IC50 was at most 5 nM.

On to `CSc1cc2c(cc1Nc1ncc(C(F)(F)F)c(-c3cc4c(s3)C(=O)N(C)CCS4(=O)=O)n1)CCNC2` [Example 161, 4-methyl-7-(2-((7-(methylthio)-1,2,3,4-tetrahydroisoquinolin-6-yl)amino)-5-(trifluoromethyl)pyrimidin-4-yl)-3,4-dihydrothieno[2,3-f][1,4]thiazepin-5(2H)-one 1,1-dioxide], for which the IC50 was at most 5 nM.

On to `CCN1CCc2cc(Nc3ncc(C(F)(F)F)c(-c4cc5c(s4)C(=O)N(C)CCS5(=O)=O)n3)c(Cl)cc2C1` [Example 162, 7-(2-((7-chloro-2-ethyl-1,2,3,4-tetrahydroisoquinolin-6-yl)amino)-5-(trifluoromethyl)pyrimidin-4-yl)-4-methyl-3,4-dihydrothieno[2,3-f][1,4]thiazepin-5(2H)-one 1,1-dioxide], for which the IC50 was at most 5 nM.

As for `O=S1(=O)CCOCc2sc(-c3nc(Nc4cc5c(cc4Cl)CNCC5)ncc3C(F)(F)F)cc21` [Example 163, 7-(2-((7-chloro-1,2,3,4-tetrahydroisoquinolin-6-yl)amino)-5-(trifluoromethyl)pyrimidin-4-yl)-2,3-dihydro-5H-thieno[3,2-e][1,4]oxathiepine 1,1-dioxide], the IC50 was at most 5 nM.

On to `CN1CCS(=O)(=O)c2cc(-c3nc(Nc4cc5c(cc4Cl)CNC5)ncc3C(F)(F)F)sc2C1=O` [Example 164, 7-(2-((6-chloroisoindolin-5-yl)amino)-5-(trifluoromethyl)pyrimidin-4-yl)-4-methyl-3,4-dihydrothieno[2,3-f][1,4]thiazepin-5(2H)-one 1,1-dioxide], for which the IC50 was at most 5 nM.

For `Cc1nn(C2CCNCC2)cc1Nc1ncc(C(F)(F)F)c(-c2cc3c(s2)C(=O)NCCS3(=O)=O)n1` [Example 165, 7-(2-((3-methyl-1-(piperidin-4-yl)-1H-pyrazol-4-yl)amino)-5-(trifluoromethyl)pyrimidin-4-yl)-3,4-dihydrothieno[2,3-f][1,4]thiazepin-5(2H)-one 1,1-dioxide], the IC50 was above 100 nM.

In the case of `Cc1nn(C2CCNCC2)cc1Nc1ncc(C(F)(F)F)c(-c2cc3c(s2)C(=O)N(C)CCS3(=O)=O)n1` [Example 166, 4-methyl-7-(2-((3-methyl-1-(piperidin-4-yl)-1H-pyrazol-4-yl)amino)-5-(trifluoromethyl)pyrimidin-4-yl)-3,4-dihydrothieno[2,3-f][1,4]thiazepin-5(2H)-one 1,1-dioxide], the IC50 is above 100 nM.

For `CN1CCc2cc(Nc3ncc(C(F)(F)F)c(-c4cc5c(s4)C(=O)N(C4CC4)CCS5(=O)=O)n3)c(Cl)cc2C1` [Example 167, 7-(2-((7-chloro-2-methyl-1,2,3,4-tetrahydroisoquinolin-6-yl)amino)-5-(trifluoromethyl)pyrimidin-4-yl)-4-cyclopropyl-3,4-dihydrothieno[2,3-f][1,4]thiazepin-5(2H)-one 1,1-dioxide], the IC50 was at most 5 nM.

Take `CN1CCc2cc(Nc3ncc(C(F)(F)F)c(-c4cc5c(s4)C(=O)N(C4CCC4)CCS5(=O)=O)n3)c(Cl)cc2C1` [Example 168, 7-(2-((7-chloro-2-methyl-1,2,3,4-tetrahydroisoquinolin-6-yl)amino)-5-(trifluoromethyl)pyrimidin-4-yl)-4-cyclobutyl-3,4-dihydrothieno[2,3-f][1,4]thiazepin-5(2H)-one 1,1-dioxide]: the IC50 was at most 5 nM.

Regarding `CN1CCc2cc(Cl)c(Nc3ncc(C(F)(F)F)c(-c4cc5c(s4)C(=O)N(C)CCS5(=O)=O)n3)cc2C1` [Example 169], the IC50 is at most 5 nM.

Turning to `CN1CCS(=O)(=O)c2cc(-c3nc(Nc4ccc5c(c4C4CC4)CNC5)ncc3C(F)(F)F)sc2C1=O` [Example 170, 7-(2-((4-cyclopropylisoindolin-5-yl)amino)-5-(trifluoromethyl)pyrimidin-4-yl)-4-methyl-3,4-dihydrothieno[2,3-f][1,4]thiazepin-5(2H)-one 1,1-dioxide], the IC50 was in the range of 10 to 50 nM.

On to `CSc1cc2c(cc1Nc1ncc(C(F)(F)F)c(-c3cc4c(s3)C(=O)N(C)CCS4(=O)=O)n1)CCN(C)C2` [Example 171, 4-methyl-7-(2-((2-methyl-7-(methylthio)-1,2,3,4-tetrahydroisoquinolin-6-yl)amino)-5-(trifluoromethyl)pyrimidin-4-yl)-3,4-dihydrothieno[2,3-f][1,4]thiazepin-5(2H)-one 1,1-dioxide], for which the half-maximal inhibitory concentration (IC50) is at most 5 nM.

On to `CN1CCS(=O)(=O)c2cc(-c3nc(Nc4cc5c(cc4C4CC4)CNCC5)ncc3C(F)(F)F)sc2C1=O` [Example 173, 7-(2-((7-cyclopropyl-1,2,3,4-tetrahydroisoquinolin-6-yl)amino)-5-(trifluoromethyl)pyrimidin-4-yl)-4-methyl-3,4-dihydrothieno[2,3-f][1,4]thiazepin-5(2H)-one 1,1-dioxide], for which the IC50 is at most 5 nM.

For the compound `CCc1cc(N2CCNCC2)ccc1Nc1ncc(C(F)(F)F)c(-c2cc3c(s2)C(=O)N(C)CCS3(=O)=O)n1` [Example 174, 7-(2-((2-ethyl-4-(piperazin-1-yl)phenyl)amino)-5-(trifluoromethyl)pyrimidin-4-yl)-4-methyl-3,4-dihydrothieno[2,3-f][1,4]thiazepin-5(2H)-one 1,1-dioxide], the IC50 is at most 5 nM.

As to `CCc1cc2c(cc1Nc1ncc(C(F)(F)F)c(-c3cc4c(s3)C(=O)N(CC(F)(F)F)CCS4(=O)=O)n1)CCNC2` [Example 175, 7-(2-((7-ethyl-1,2,3,4-tetrahydroisoquinolin-6-yl)amino)-5-(trifluoromethyl)pyrimidin-4-yl)-4-(2,2,2-trifluoroethyl)-3,4-dihydrothieno[2,3-f][1,4]thiazepin-5(2H)-one 1,1-dioxide], the IC50 is at most 5 nM.

On to `Cc1c(Nc2ncc(C(F)(F)F)c(-c3cc4c(s3)C(=O)N(C)CCS4(=O)=O)n2)cnn1C1CCNCC1` [Example 176, 4-methyl-7-(2-((5-methyl-1-(piperidin-4-yl)-1H-pyrazol-4-yl)amino)-5-(trifluoromethyl)pyrimidin-4-yl)-3,4-dihydrothieno[2,3-f][1,4]thiazepin-5(2H)-one 1,1-dioxide], for which the concentration for half-maximal inhibition (IC50) is above 100 nM.

Turning to `CN1CCS(=O)(=O)c2cc(-c3nc(Nc4cc5c(cc4C4CC4)CNC5)ncc3C(F)(F)F)sc2C1=O` [Example 177, 7-(2-((6-cyclopropylisoindolin-5-yl)amino)-5-(trifluoromethyl)pyrimidin-4-yl)-4-methyl-3,4-dihydrothieno[2,3-f][1,4]thiazepin-5(2H)-one 1,1-dioxide], the IC50 was at most 5 nM.

In the case of `Cc1c(Nc2ncc(C(F)(F)F)c(-c3cc4c(s3)C(=O)NCCS4(=O)=O)n2)cnn1C1CCNCC1` [Example 178, 7-(2-((5-methyl-1-(piperidin-4-yl)-1H-pyrazol-4-yl)amino)-5-(trifluoromethyl)pyrimidin-4-yl)-3,4-dihydrothieno[2,3-f][1,4]thiazepin-5(2H)-one 1,1-dioxide], the IC50 is above 100 nM.

`O=C1NCCS(=O)(=O)c2cc(-c3nc(Nc4cc5c(cc4Cl)CNC5)ncc3C(F)(F)F)sc21` [Example 180, 7-(2-((6-chloroisoindolin-5-yl)amino)-5-(trifluoromethyl)pyrimidin-4-yl)-3,4-dihydrothieno[2,3-f][1,4]thiazepin-5(2H)-one 1,1-dioxide]: the IC50 was at most 5 nM.

Regarding `CN1Cc2cc(Cl)c(Nc3ncc(C(F)(F)F)c(-c4cc5c(s4)C(=O)N(C)CCS5(=O)=O)n3)cc2C1` [Example 181, 7-(2-((6-chloro-2-methylisoindolin-5-yl)amino)-5-(trifluoromethyl)pyrimidin-4-yl)-4-methyl-3,4-dihydrothieno[2,3-f][1,4]thiazepin-5(2H)-one 1,1-dioxide], the IC50 was at most 5 nM.
